These results are taken from US20260248800A1, “FERROPTOSIS INHIBITORS AND USES THEREOF” (UNIVERSITY OF OTTAWA, priority 2022, published 2026).

Read-outs that look alike come from different tables or passages of the source. Marks after values point to notes of the source that are not given here. Some results are limits rather than exact numbers.

The conditions of data set [1]: in dilinoleoyl phosphatidylcholine (PC) liposomes; cited from earlier work.
For data set [2] the following is noted: inhibited autoxidation of styrene in chlorobenzene; cited from earlier work.
Data set [3] in a line: MeOAMVN-initiated co-autoxidation of STY-BODIPY and egg PC liposomes (FENIX). The data set is classed as biochemical. Conditions: for n (radical-trapping stoichiometry): MeOAMVN-initiated co-autoxidation of STY-BODIPY and egg PC liposomes; for predicted increase in kinh^lip relative to PNX: predicted/estimated kinh^lip vs PNX.
In data set [4] the test system is Pfa-1 mouse embryonic fibroblasts (MEFs). The data set is described as follows: cells. As to conditions: Fibroblast.
For data set [5] the test system is unchanged.
Data set [6] is described as follows: H-bond acidity (α2^H) of the RTA by 1H NMR. The data set is classed as physicochemical. Conditions: estimated from the 1H NMR chemical shift difference of the amine proton in DMSO-d6 and benzene-d6.
For data set [7] the following is noted: at 37° C. in PhCl; literature; cited from earlier work.
The next data set concerns MEFs. As to conditions: inhibition of RSL3-induced ferroptosis in MEFs; Shah et al., 2017; cited from earlier work.
The conditions of data set [8]: mouse, microsomes.
The nature of data set [9]: Liver microsome stability assay. Conditions: pH 7.4. (In general: Liver microsomes are a subcellular fraction often used to study metabolism.)
Where [10] appears, read: apparent inhibition rate constant, MeOAMVN-initiated autoxidation of egg PC liposomes, determined by fluorescence.
The mark [11] stands for this setting: 5 h, read-out: Pfa-1 MEF Ferroptosis EC50, RSL3-induced cell death (150 nM for 5 hours), AquaBluer.
[12] abbreviates: read-out: Pfa-1 MEF Ferroptosis EC50, RSL3-induced cell death (150 nM for 5 hours), AquaBluer.
Setting [13] is: Table 6, from survival curve of RSL3 induced ferroptosis of pfa-1 MEFS.
The mark [14] stands for this setting: apparent inhibition rate constant, MeOAMVN-initiated autoxidation of egg PC liposomes, determined by absorbance (STY-BODIPY 10-20 μM, 565 nm).
[15] abbreviates: RSL3-induced cell death (150 nM for 5 hours), AquaBluer.
The mark [16] stands for this setting: predicted from log kinh^0, α2^H and β2^H=0.69 using Eq. 4 (too reactive to be determined directly).
[17] abbreviates: measured in MeOAMVN-initiated autoxidation of egg PC liposomes.

For the molecule `Cc1c(C)c2c(c(C)c1O)CC[C@@](C)(CCC[C@H](C)CCC[C@H](C)CCCC(C)C)O2` [α-TOH, α-tocopherol], the kinh in [1] was 6000 M⁻¹ s⁻¹; in data set [2] it was 3e+06 M⁻¹ s⁻¹.
In the case of `FC(F)(F)c1ccc2c(c1)Nc1ccccc1O2` [Compound 6, 2-trifluoromethylphenoxazine], the “n (radical-trapping stoichiometry)” value in data set [3] worked out at 3.0 ± 0.1. For the same molecule, the “kinh^lip” value in [3] (setting [10]) is reported as “(75 ± 11) 10^5 M^−1s^−1”. Besides, the figures for the EC50 in data set [4] (setting [11]) and in data set [5] (setting [12]) were 9 nM and 8.8 ± 0.5 nM, respectively. For the same molecule, in data set [6], the “α2^H” value was 0.51.
For `CCOC(=O)c1ccc(NC2CCCCC2)c(N)c1` [Fer-1, ferrostatin-1], in [7], the kinh is 300000 M⁻¹ s⁻¹. The results for the EC50 (in [5] (setting [13]); in data set [5] (setting [12]); in the data set with MEFs) were 27 ± 2 nM, 27 nM and 45 nM, respectively. For the same molecule, the t1/2 in data set [8] came out at 5.3 ± 0.1 min.
Consider `Clc1ccc2c(c1)Nc1ccccc1S2` [Compound 24, reference compound], for which the “n (radical-trapping stoichiometry)” value in [3] was found to be 2.1 ± 0.1. The “kinh^lip” value in data set [3] (setting [10]) is recorded as “(39 ± 4) 10^5 M^−1s^−1”. For the same molecule, the EC50 in data set [5] (setting [12]) is 56 ± 10 nM. Besides, in data set [6], the “α2^H” value is 0.43.
As to `c1ccc2c(c1)Nc1ccccc1S2` [Compound 2, phenothiazine, reference compound], the half-life at 10 μM in data set [9] (BALB/c, mouse, liver microsomes) is 11.5 min. In addition, the kinh in data set [7] is ~ 8×10^6 M^−1s^−1. The “n (radical-trapping stoichiometry)” value in data set [3] came to 1.9 ± 0.1. The “kinh^lip” value in [3] (setting [14]) is “(110 ± 20)^e 10^5 M^−1s^−1”. Moreover, the half-maximal effective concentration (EC50) in [4] (setting [11]) and in data set [4] (setting [13]) was 24 ± 1 nM each time. The “α2^H” value in [6] is given as 0.38.
In the case of `CC(C)(C)c1ccc2c(c1)Oc1ccc(C(F)(F)F)cc1N2` [Compound 7, 3-tert-Butyl-8-trifluoromethylphenoxazine], the “n (radical-trapping stoichiometry)” value in [3] amounted to 2.8 ± 0.1. In addition, in data set [3] (setting [10]), the “kinh^lip” value is given as “(75 ± 13) 10^5 M^−1s^−1”. Further, the EC50 in [4] (setting [11]) and in data set [4] (setting [13]) was 4.1 ± 0.1 nM in each case. The “Pfa-1 MEF Ferroptosis EC50” value in [5] (setting [15]) is recorded as “single-digit nanomolar potency”.
Take `Cc1ccc2c(c1)Oc1cc(C)ccc1N2` [Compound 35, 3,7-Dimethylphenoxazine]: in data set [3] (setting [16]), the “kinh^lip” value is 1180 ^f 10^5 M^−1s^−1. Further, the “predicted increase in kinh^lip relative to PNX” value in [3] is reported as 5.1 fold. Further, the EC50 came to 6 nM in [4] (setting [11]) and 5.4 ± 0.2 nM in data set [5] (setting [12]). Also, the “α2^H” value in [6] is given as 0.41.
Take `CC(c1ccc2c(c1)Nc1ccc(C(F)(F)F)cc1O2)S(=O)(=O)N1CCNCC1` (stereo not shown) [Compound 46, 2-(1-(piperazin-1-ylsulfonyl)ethyl)-7-(trifluoromethyl)-OH-phenoxazine]: the EC50 in [4] (setting [11]) and in data set [4] (setting [13]) was 3 ± 0.1 nM each time. Also, the “Pfa-1 MEF Ferroptosis EC50” value in [5] (setting [15]) is recorded as “single-digit nanomolar potency”.
As to `FC(F)(F)c1ccc2c(c1)Nc1ccccc1S2` [Compound 25, reference compound], the “n (radical-trapping stoichiometry)” value in data set [3] came out at 2.5 ± 0.1. Also, in [3] (setting [10]), the “kinh^lip” value was “(19 ± 1) 10^5 M^−1s^−1”. Moreover, the EC50 in data set [5] (setting [12]) was 16 ± 1 nM. Besides, in [6], the “α2^H” value was 0.44.
With `O=[N+]([O-])c1ccc2c(c1)Sc1cc([N+](=O)[O-])ccc1N2` [Compound 29, 3,7-Dinitrophenothiazine, reference compound], the “kinh^lip” value in data set [3] (setting [10]) is “(0.41 ± 0.04) 10^5 M^−1s^−1”; in [3] (setting [17]) it was 400 M⁻¹ s⁻¹. In addition, the concentration for a half-maximal effect (EC50) in data set [4] (setting [11]) is > 1000 nM; in [5] (setting [12]), ≥ 1000 nM. Further, in data set [4] (read-out: apparent cell viability), the viability at 1000 µM is ~50%. Also, in data set [6], the “α2^H” value is given as 0.62.
As for `CC(C)(C)c1ccc2c(c1)Nc1ccc(C(F)(F)F)cc1O2` [Compound 11, 2-tert-Butyl-7-trifluoromethylphenoxazine], the “n (radical-trapping stoichiometry)” value in data set [3] is reported as 2.6 ± 0.1. The “kinh^lip” value in [3] (setting [10]) is listed as “(44 ± 3) 10^5 M^−1s^−1”. Further, the EC50 in data set [4] (setting [11]) and in data set [4] (setting [13]) was 3.6 ± 0.2 nM in each case. Further, in [5] (setting [15]), the “Pfa-1 MEF Ferroptosis EC50” value is given as “single-digit nanomolar potency”.
As to `CC(C)(C)c1ccc2c(c1)Nc1cc(C(F)(F)F)ccc1O2` [Compound 8, 2-tert-Butyl-8-trifluoromethylphenoxazine], the “n (radical-trapping stoichiometry)” value in data set [3] came to 2.3 ± 0.1. The “kinh^lip” value in data set [3] (setting [10]) is “(64 ± 9) 10^5 M^−1s^−1”. The EC50 in [4] (setting [11]) and in data set [4] (setting [13]) was 5.6 ± 0.3 nM each time. Further, in data set [5] (setting [15]), the “Pfa-1 MEF Ferroptosis EC50” value is “single-digit nanomolar potency”.
Regarding `COc1ccc2c(c1)Oc1cc([N+](=O)[O-])ccc1N2` [Compound 17, 3-nitro-7-methoxyphenoxazine], in data set [3], the “n (radical-trapping stoichiometry)” value came to 2.9 ± 0.2. Besides, the “kinh^lip” value in data set [3] (setting [14]) is reported as “(61 ± 4)e 10^5 M^−1s^−1”. In [4] (setting [11]), the EC50 was found to be 31 ± 1 nM. For the same molecule, the “α2^H” value in data set [6] is on record as 0.60.
In the case of `COc1ccc2c(c1)Oc1ccccc1N2` [Compound 39, 3-methoxyphenoxazine], the “kinh^lip” value in [3] (setting [16]) is reported as 1490 ^f 10^5 M^−1s^−1. For the same molecule, the “predicted increase in kinh^lip relative to PNX” value in [3] is given as 6.7 fold. Besides, the EC50 in [4] (setting [11]) turned out to be 12 nM. The “α2^H” value in data set [6] is reported as 0.42.
As for `Clc1cccc(CN=C2Nc3ccccc3NC23CCNCC3)c1` [Lip-1, liproxstatin-1], the t1/2 result in [9] (BALB/c mouse liver microsomes increased (1.0 mg/mL), 1 mM NADPH, 37° C., 10 μM compound (Verapamil 1 μM)) is given as “(133 ± 8.4) ^d min”. For the same molecule, the kinh in data set [7] is 200000 M⁻¹ s⁻¹. The EC50 in [5] (setting [13]) is 18 ± 1 nM; in data set [5] (setting [12]), 18 nM; with MEFs, 35 nM.
Consider `CC(c1ccc2c(c1)Nc1ccc(C(F)(F)F)cc1O2)S(=O)(=O)NCCN(C)C` (stereo not shown) [Compound 44, N-(2-(dimethylamino)ethyl)-1-(7-(trifluoromethyl)-10H-phenoxazin-2-yl)ethanesulfonamide], for which the EC50 in data set [4] (setting [11]) and in [4] (setting [13]) was 2.2 ± 0.1 nM throughout. The “Pfa-1 MEF Ferroptosis EC50” value in data set [5] (setting [15]) is recorded as “single-digit nanomolar potency”.
For `CC(C)(C)c1ccc2c(c1)Oc1cc(C(F)(F)F)ccc1N2` [Compound 10, 3-tert-Butyl-7-trifluoromethylphenoxazine], the “n (radical-trapping stoichiometry)” value in data set [3] was 2.8 ± 0.1. The “kinh^lip” value in data set [3] (setting [10]) is listed as “(55 ± 10) 10^5 M^−1s^−1”. The EC50 in [4] (setting [11]) and in data set [4] (setting [13]) was 5.2 ± 0.2 nM in each case. Further, in data set [5] (setting [15]), the “Pfa-1 MEF Ferroptosis EC50” value was “single-digit nanomolar potency”.
Take `c1ccc2c(c1)Nc1ccccc1O2` [Compound 1, phenoxazine, reference compound]: in [7], the kinh is ~ 4×10^7 M^−1s^−1. Also, in [3], the “n (radical-trapping stoichiometry)” value is recorded as 2.0 ± 0.1. Further, the “kinh^lip” value in data set [3] (setting [14]) is “(232 ± 23)^e 10^5 M^−1s^−1”; in data set [3] (setting [17]) it was 220000 M⁻¹ s⁻¹. Also, the EC50 is 16 ± 1 nM in data set [4]; 16 nM in data set [4] (5 h, read-out: Pfa-1 MEF Ferroptosis EC50); 9 nM in the data set with MEFs. In addition, the “α2^H” value in data set [6] is reported as 0.44.

The term EC50 denotes the midpoint of the concentration-response curve. In general, half-life refers to the time needed for the level to fall by half in the phase considered. A low value points to rapid decline. By viability is commonly meant a per cent measure of how many cells are alive, often set against a control.
